Data from patent publication US20050164913A1, “Disinfecting composition” (Veckis Industries Ltd., priority 2002, published 2005).

Key:
Format in all cases: cell-based
[1] = system: Bacillus cereus (strain 96); experiment: Antimicrobial activity of samples: death time of test-microorganism Bacillus cereus; settings: sample concentration 5.0 %
E. coli (strain 1257) = experiment: Antimicrobial activity of samples: death time of test-microorganism E. coli
[2] = system: Staphylococcus aureus (strain 906); experiment: Antimicrobial activity of samples: death time of test-microorganism Staphylococcus aureus
[3] = statement of the text on Table 1

With Monoglycinatecopper chloride complex the “Death time of test-microorganisms (min) Bacillus cereus” value [1] was greater than 360 min, the “Death time of test-microorganisms (min) E. coli” value (“Death time … (min) E. coli” for short) (E. coli (strain 1257); sample concentration 0.1 %) was greater than 30 min and the “Death time … (min) E. coli” value (E. coli (strain 1257); sample concentration 0.2 %) was 30 min. The “Death time … (min) E. coli” value (E. coli (strain 1257); sample concentration 0.5 %) was 15 min, the “Antibacterial action in words towards gram negative bacteria (vegetative forms)” value (E. coli (strain 1257); [3]) was “high enough efficacy” and the “Death time of test-microorganisms (min) Staphylococcus aureus” value (“Death time … (min) Staphylococcus aureus” for short) ([2]; sample concentration 0.1 %) was greater than 30 min. The “Death time … (min) Staphylococcus aureus” value ([2]; sample concentration 0.2 %) was greater than 30 min, the “Death time … (min) Staphylococcus aureus” value ([2]; sample concentration 0.5 %) was greater than 30 min and the “Death time … (min) Staphylococcus aureus” value ([2]; sample concentration 5.0 %) was greater than 30 min. The “Antibacterial action in words towards gram positive bacteria (vegetative forms)” value [2, 3] was “high enough efficacy”.
For O=C(O)CN(CCN(CC(=O)O)CC(=O)O)CC(=O)O.[Zn] [Ethylenediaminotetraacetate zinc complex], the “Death time … (min) E. coli” value (E. coli (strain 1257); sample concentration 0.1 %) was greater than 30 min, the “Death time … (min) E. coli” value (E. coli (strain 1257); sample concentration 5.0 %) was greater than 30 min and the “Death time … (min) Staphylococcus aureus” value ([2]; sample concentration 0.1 %) was greater than 30 min. For the same compound, the “Death time … (min) Staphylococcus aureus” value ([2]; sample concentration 5.0 %) was greater than 30 min.
